Measurements published in BindingDB's records for doi:10.1021/cb400526n (Academy of Sciences of The Czech Republic, 2013).

molecular target: Aldo-keto reductase family 1 member B1 (Homo sapiens, UniProt P15121); assay: IC50 Activity Assays; conditions: pH 7; 25 °C
Protocol: The final reaction volume was 500uL per reaction. All compounds were dissolved in dimethyl sulphoxide, and the corresponding solution was added to the cell and incubated for 5 min at 25 degrees Celsius prior to the addition of the substrate. The reaction was initiated by the addition of 1mM glyceraldehyde, and the decrease in optical density at 340nm was monitored for 3 min at 25 degrees Celsius in a UV-vis spectrophotometer.

Row | Structure (SMILES) | IC50 [nM]
1 | O=C(O)COc1cc(Cl)ccc1C(=O)NCc1ccc(Br)cc1 [MK181] | 710
2 | O=C(O)COc1cc(Cl)ccc1C(=O)NCc1c(F)cc(Br)cc1F [MK408] | 1190
3 | O=C(O)COc1cc(Cl)ccc1C(=O)NCc1ccc(Br)cc1F [IDD388] | 400
4 | O=C(O)COc1cc(Cl)ccc1C(=O)NCc1ccc(I)cc1F [MK315] | 190
5 | O=C(O)COc1cc(Cl)ccc1C(=O)NCc1c(F)c(F)c(Br)c(F)c1F [MK319] | 300
6 | O=C(O)COc1cc(Cl)ccc1C(=O)NCc1ccc(I)cc1 [MK257] | 1900
7 | O=C(O)COc1cc(Cl)ccc1C(=O)NCc1c(F)cc(I)cc1F [MK409] | 1360
